From article PMC6274259, “New 3-Cyano-2-Substituted Pyridines Induce Apoptosis in MCF 7 Breast Cancer Cells” (Molecules, 2016)

Legend:
[1] = test system: MDA-MB-231 human breast adenocarcinoma cell line; assay: WST-1 cell viability assay, MDA-MB-231; assay type: cell-based; details: Homo sapiens, MDA-MB-231; WST-1, 24 h treatment, mean ± S.D of three independent experiments
From the text: The synthesized compounds were screened for their cytotoxicity on five cancer cell lines, namely SK-OV-3, MCF-7, MDA-MB-231, HCT-116 and RKO, using a WST colorimetric assay. The assay principle is based upon the reduction of the tetrazolium salt WST-1 to formazan by cellular mitochondrial dehydrogenases present in viable cells. […] Among the latter compounds the benzohydrazide derivative 9a emerged with the lowest IC50 in this study against MCF-7 cells compared to 5-FU. […] Based on the fact that 9a had less cytotoxic effects on normal breast epithelial cells it was subjected to further studies.
The following cell lines were used for the screening stage, obtained from the American Type Culture Collection (ATCC, Manassas, VA, USA); SK-OV-3 (HTB-77), MCF-12A (ATCC CRL-10782), MDA-MB-231 (ATCC HTB-26), HCT-116 (CCL-247), RKO (CRL-2577) and sub-culturing of the above cell lines was conducted in 75 cm^2 flasks. The old culture media was removed and discarded after assessing the confluency of the cells and the cells were rinsed with 2–3 mL diluted trypsin (1×) (trypsin/EDTA solution consists of 0.025% trypsin and 0.01% EDTA in PBS), for about 5 minutes for complete detachment. The cells were observed under the inverted microscope until the cell layer is completely dispersed. 75 cm^2 flasks were prepared and 16 mL of DMEM media for SK-OV-3, MCF-7, MDA-MB-231, (DMEM 4500 mg glucose) and RPMI media for HCT-116 were added to each flask. The cells were aspirated gently and added to the flasks. DMEM 4500 mg/L high glucose with 10% FBS, 5% streptomycin and penicillin, RPMI 1640 (prepared by adding 5% heat-inactivated FCS and 2 mm glutamine) were used. DMEM was also used for MCF-12A cells with the addition of human epidermal growth factor 20 ng/mL, insulin 0.01 mg/mL and hydrocortisone 500 ng/mL.
The synthesized compounds were screened for their anti-proliferative activity using 5-FU (F6627-1G, Sigma-Aldrich, St. Louis, MO, USA) as reference compound. A concentration of 0.4% DMSO was used in all experiment after ensuring 100% viability of the cell lines with this concentration. A 25 mM stock concentration of all compounds was prepared for further studies and analysis.
Cells were trypsinized and placed in a 15 mL Falcon tube, the cells were centrifuged for 3 min at 1000 rpm. Trypsin is decanted using a sterile pipette and then the pellet is loosened by flicking the tube few times then 5–10 mL warm DMEM or RPMI were added to the Falcon tube and the pellet is resuspended. Cell count was done next by taking 10 μL of the suspension into the cell counting slide and read under 10× cells/mL. A cell stock of 50,000 cells/mL was prepared for the 96 wells. Cells (100 μL) were added to each well using a sterile pipette each time to ensure consistency. The experiment was planned ahead of time using excel sheet, 3–6 wells were reserved as blank media while 3–6 wells for vehicle (DMSO). The plate was incubated for 24 h for compound treatment step. DMEM media was used to prepare different dilutions of the compounds. The old DMEM media was removed from the wells using sterile pipette in the hood and the media was replaced with 100 μL media with each compound. The plate was incubated for 24 h. After 24 h incubation, WST-1 reagent (Sigma) was added to each well and then the plate was incubated for 1 h before measuring the absorbance using VICTOR™ Multilabel Plate Reader (Perkin Elmer, Beaconsfield, UK). The absorbance of the colored solution can be quantified by measuring at a certain wavelength (usually between 500–600 nm), in this experiment the first reading was conducted at 540 nm and the second reading at 690 nm for the reference wavelength. The percentage of cell viability was determined as the ratio of the absorbance of the sample vs the control. Three independent experiments were performed. […] 5-Florouracil (Sigma-Aldrich, F6627-1G) was used as reference standard.

MCF-7 cells [2] = assay: Morphological examination of MCF-7 cells; assay type: cell-based, human; details: 24 h
Procedure: The morphological changes in MCF-7 cells were followed up after treatment with different concentrations of compound 9a (0.05, 0.1, 0.5, 2, 5 and 10 μM) for 24 h. […] Untreated cells were used as a negative control.
Morphological examination was performed as described previously; MCF-7 cells were plated on 96 well plates using 5 × 10^4 cells/well and allowed to reach 75%–85% confluence. The compounds were added to the medium, untreated cells were used as negative control, in addition to blank cells (medium) and vehicle which consist of (DMSO 0.4% + cells). After treatment, all the cells were incubated for 24 h in an atmosphere containing 5% CO2. After […] of treatment, the morphological changes of the cells were examined and photographs were taken using an inverted microscope at 400× magnification.

MCF-7 cells [3] = assay: Western blot analysis of protein expression; assay type: cell-based, human
Procedure: Total protein was extracted from treated and untreated cells using lysis buffer (10 mM Tris-HCl (pH 7.5), 1 mM EDTA, 1% Triton X-100, 150 mM NaCl, 1 mM dithiothretol, 10% glycerol, 0.2 mM phenylmethysulphonyl fluoride and protease inhibitors) for 30–50 min on ice. The extracts were centrifuged at 13,000× g for 15 min at 4 °C to remove cell debris. Folin Lowry (Pierce, Grand Island, NY, USA) protein assay was used to figure the protein concentration in the cell lysates. Proteins were resolved by electrophoresis on 8%–10% sodium dodecyl sulphate-polycrylamide gel loading equal amount of proteins per lane. The resolved proteins were transferred onto polyvinylidene difluoride (PVDF) membrane and then probed with primary antibody against the protein of interest prepared in 5% milk/PBS-T. The membrane was washed using phosphate buffer saline with Tween 20 (PBS-T) and then appropriate secondary antibody conjugated to horseradish peroxidase (HRP) was used for visualization of the bands using ECL chemiluminescence kit (GE, Fairfield, CT, USA). Anti-p27, anti-CDK2, anti-CDK4, anti-(p21), anti-(p53), anti-Bax, anti-Akt, anti-Bcl-2, anti-MDM2, anti-cytochrome C, anti-caspase-8, anti-procaspase-8, anti-FAS, anti-VEGF, anti-MMP-9, anti-β-catenin were purchased from SantaCruz (Dallas, TX, USA). Pixel density of the proteins studied was calculated using Image J, version 1.41o, NIH (Bethesda, MD, USA). The values obtained were first normalized to loading control β-actin and the fold change was measured by normalizing to that of the control (0 h) value. At least two independent experiments were performed.

IC50 [1]: 22.3 ± 0.88 µM
SMILES: COc1ccc(-c2cc(-c3ccc(OC)c(OC)c3)c(C#N)c(OCC(=O)NNC(=O)c3ccccc3)n2)cc1OC [Compound 9a, N'-[2-(3-cyano-4,6-bis(3,4-dimethoxyphenyl)pyridin-2-yloxy)acetyl]benzohydrazide]
morphological changes (MCF-7 cells [2]; 0.05, 0.1 and 0.5 μM): no morphological changes were observed | morphological changes (MCF-7 cells [2]; 2, 5 and 10 μM): apoptotic features were observed | expression of CDK2 (MCF-7 cells [3]; 2 μM, 24 h): decreased | expression of CDK4 (MCF-7 cells [3]; 2 μM, 24 h): decreased | expression of MMP-9 (MCF-7 cells [3]; 2 μM, 24 h): significantly inhibited | expression of VEGF (MCF-7 cells [3]; 2 μM, 24 h): significantly inhibited | expression of caspase-3 (MCF-7 cells [3]; 2 μM, 24 h): up-regulated | expression of p27 (MCF-7 cells [3]; 2 μM, 24 h): increased | level of Akt (MCF-7 cells [3]; 2 μM, 24 h): decreased | level of Bcl-2 protein (MCF-7 cells [3]; 2 μM, 24 h): decreased | level of MDM2 (MCF-7 cells [3]; 2 μM, 24 h): decreased | level of procaspase 3 (MCF-7 cells [3]; 2 μM, 24 h): decreased | expression of cytochrome c in cytoplasm (MCF-7 cells [3]; 2 μM, 24 h, cytosol fraction): increased | expression of cytochrome c in mitochondria (MCF-7 cells [3]; 2 μM, 24 h, mitochondrial fraction): reduced | level of Bax (MCF-7 cells [3]; 2 μM, 24 h, vs untreated cells): increased | level of p21 (MCF-7 cells [3]; 2 μM, 24 h, vs untreated cells): increased | level of p53 (MCF-7 cells [3]; 2 μM, 24 h, vs untreated cells): increased | expression of phospho AKT (MCF-7 cells [3]; 0.5, 1 and 2 μM, 24 h): reduced the expression of phospho AKT and β-catenin in dose-dependent manner | expression of β-catenin (MCF-7 cells [3]; 0.5, 1 and 2 μM, 24 h): reduced the expression of phospho AKT and β-catenin in dose-dependent manner | expression of FAS (MCF-7 cells [3]; treated vs untreated): no significant change | expression of caspase-8 (MCF-7 cells [3]; treated vs untreated): no significant change | expression of procaspase-8 (MCF-7 cells [3]; treated vs untreated): no significant change
